The compounds below were run on HCV replicon (assay: Cell-Based HCV Replicon Assay). Conditions: Hepatitis C virus, 72 h; Table IV; replicon cells, day 3, real time PCR; EC90 = concentration for ΔCT=3.2 over baseline; read-out: EC90.
Outline: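 Replicon cells, 5000/well, treated 3 days with 10 serial 2-fold dilutions (top 25 μM to 1 μM) in 0.5% DMSO, 10% FBS. Replicon RNA measured by multiplex Taqman RT-PCR (NS5B amplicon, GAPDH control); EC50/EC90 = concentration giving ΔCT of 1/3.2 over baseline from sigmoid fit.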

Structure (SMILES)	EC90 [µM]
Cc1nc(N[C@H](C)C2CC2)nc(N[C@@H]2C[C@H](CCO)[C@@H](O)[C@H]2O)c1-c1nc2c(C)nccc2s1 [Example 3561]	0.023
Cc1nc(NC2CCC2)nc(N[C@@H]2C[C@H](CS(C)(=O)=O)[C@@H](O)[C@H]2O)c1-c1nc2c(C3CC3)nccc2s1 [Example 3513]	0.054

Same assay, conditions: Hepatitis C virus, 72 h; Table V, class codes; replicon cells, day 3, real time PCR; EC90 = concentration for ΔCT=3.2 over baseline; read-out: EC90 (uM) range

Structure (SMILES)	EC90 [µM]
CO[C@@H]1[C@@H](CO)C[C@@H](Nc2nc(N[C@H](C)c3ccc(OC(F)(F)F)cc3)nc(C)c2-c2nc3c(C)nccc3s2)[C@@H]1O [Example 4904]	< 0.5
CO[C@@H]1[C@@H](CO)C[C@@H](Nc2nc(N)nc(C)c2-c2nc3c(C)nccc3s2)[C@@H]1O [Example 4907]	< 0.5
Cc1nc(N)nc(N[C@@H]2C[C@H](C(=O)NC(C)(C)C)[C@@H](O)[C@H]2O)c1-c1nc2c(C3CC3)nccc2s1 [Example 4929]	< 0.5
Cc1ccccc1[C@@H](C)Nc1nc(C)c(-c2nc3c(C4CC4)nccc3s2)c(N[C@@H]2C[C@H](CO)[C@@H](O)[C@H]2O)n1 [Example 4934]	< 0.5
CO[C@H](C)CNc1nc(C)c(-c2nc3cnc(C)cc3s2)c(N[C@@H]2C[C@H](CO)[C@@H](O)[C@H]2O)n1 [Example 4953]	< 0.5

Same assay, conditions: Hepatitis C virus; HCV Replicon assay, EC90 range, Table VI; read-out: EC90

Structure (SMILES)	EC90 [µM]
COC1(CNc2nc(C)c(-c3nc4c(C)nccc4s3)c(N[C@@H]3C[C@H](C(C)(C)O)[C@@H](O)[C@H]3O)n2)CCCCC1 [Example 5195]	< 0.5
Cc1nc(NC2CCC2)nc(N[C@@H]2C[C@H](C(C)(C)NS(C)(=O)=O)[C@@H](O)[C@H]2O)c1-c1nc2c(C)nccc2s1 [Example 5049]	< 0.5
Cc1nc(NCC2(O)CC2)nc(N[C@H]2C=C[C@@H](CO)C2)c1-c1nc2c(C)nccc2s1 [Example 5170]	< 0.5
Cc1nc(NC2CC2)nc(N[C@@H]2C[C@H](CS(=O)(=O)c3ccc(F)c(F)c3)[C@@H](O)[C@H]2O)c1-c1nc2c(C)nccc2s1 [Example 5004]	< 0.5
CO[C@@H]1[C@H](OC)[C@@H](C(C)(C)O)C[C@H]1Nc1nc(NC[C@@H](C)OC)nc(C)c1-c1nc2c(C)nccc2s1 [Example 5264]	< 0.5
COCCNc1nc(C)c(-c2nc3c(C)nccc3s2)c(N[C@@H]2C[C@H](C(C)(C)NC(=O)OC)[C@@H](O)[C@H]2O)n1 [Example 5042]	< 0.5
Cc1nc(N[C@H](C)c2c(F)c(F)c(C)c(F)c2F)nc(N[C@H]2C=C[C@@H](CO)C2)c1-c1nc2c(C)nccc2s1 [Example 5169]	< 0.5
CO[C@H](C)CNc1nc(C)c(-c2nc3c(C)nccc3s2)c(N[C@@H]2C[C@H](CS(=O)(=O)c3ccc(F)c(C)c3)[C@@H](O)[C@H]2O)n1 [Example 5012]	< 0.5
Cc1nc(NC2CCC2)nc(N[C@@H]2C[C@H](C(C)(C)S(C)(=O)=O)[C@@H](O)[C@H]2O)c1-c1nc2c(C)nccc2s1 [Example 5062]	< 0.5
Cc1nc(NCC2CC2)nc(N[C@@H]2C[C@H](C(C)(C)S(=O)(=O)c3ccccc3)[C@@H](O)[C@H]2O)c1-c1nc2c(C)nccc2s1 [Example 5066]	< 0.5
COCCNc1nc(C)c(-c2nc3c(C)nccc3s2)c(N[C@@H]2C[C@H](C(C)(C)S(C)(=O)=O)[C@@H](O)[C@H]2O)n1 [Example 5071]	< 0.5
Cc1nc(NC(C)CCCC(C)(C)O)nc(N[C@@H]2C[C@H](C(C)(C)O)[C@@H](O)[C@H]2O)c1-c1nc2c(C)nccc2s1 (some centres unmarked) [Example 5163]	< 0.5
CO[C@@]1(CNc2nc(C)c(-c3nc4c(C)nccc4s3)c(N[C@@H]3C[C@H](C(C)(C)O)[C@@H](O)[C@H]3O)n2)CCOC1 [Example 5102]	< 0.5
Cc1nc(NC(C)C2CC(F)(F)C2)nc(N[C@@H]2C[C@H](CO)[C@@H](O)[C@H]2O)c1-c1nc2c(C3CC3)nccc2s1 (some centres unmarked) [Example 5305]	0.5 to 5
CCCNC(=O)N[C@H]1C[C@@H](Nc2nc(NCc3c(F)cccc3F)nc(C)c2-c2nc3c(C4CC4)nccc3s2)[C@H](O)[C@@H]1O [Example 5085]	< 0.5
Cc1nc(N)nc(N[C@@H]2C[C@H](CC(C)(C)O)[C@@H](O)[C@H]2O)c1-c1nc2c(C)nccc2s1 [Example 5304]	< 0.5
Cc1nc(NCC(F)(F)C(F)(F)C(F)(F)F)nc(N[C@@H]2C[C@H](C(C)(C)O)[C@@H](O)[C@H]2O)c1-c1nc2c(N)nccc2s1 [Example 5210]	< 0.5
CO[C@@H]1CCC[C@@H]1Nc1nc(C)c(-c2nc3c(C)nccc3s2)c(N[C@@H]2C[C@H](CO)[C@@H](O)[C@H]2O)n1 [Example 5143]	< 0.5
Cc1nc(NCC2CCC2)nc(N[C@@H]2C[C@H](C(C)(F)F)[C@@H](O)[C@H]2O)c1-c1nc2c(C3CC3)nccc2s1 [Example 5183]	< 0.5
CCc1nccc2sc(-c3c(C)nc(NCC4CC4)nc3N[C@@H]3C[C@H](CS(=O)(=O)c4ccc(F)c(C)c4)[C@@H](O)[C@H]3O)nc12 [Example 5017]	< 0.5
Cc1nc(N)nc(N[C@@H]2C[C@H](C(C)(C)S(C)(=O)=O)[C@@H](O)[C@H]2O)c1-c1nc2c(C)nccc2s1 [Example 5069]	< 0.5
Cc1nc(NCCO)nc(NC2(C)CCC2)c1-c1nc2c(C)nccc2s1 [Example 5219]	< 0.5
CO[C@@H]1[C@H](OC)[C@@H](C(C)(C)O)C[C@H]1Nc1nc(NCC2CC2)nc(C)c1-c1nc2c(C)nccc2s1 [Example 5265]	< 0.5
CO[C@H]1CCCC[C@@H]1Nc1nc(C)c(-c2nc3c(C)nccc3s2)c(N[C@@H]2C[C@H](C(C)(C)O)[C@@H](O)[C@H]2O)n1 [Example 5137]	0.5 to 5
Cc1nc(NCC(F)(F)F)nc(N[C@@H]2C[C@H](C(C)(C)S(=O)(=O)c3ccccc3)[C@@H](O)[C@H]2O)c1-c1nc2c(C)nccc2s1 [Example 5067]	< 0.5

Structure (SMILES)	EC90 [µM]
Cc1nc(NC2(C3CC3)CC2)nc(N[C@@H]2C[C@H]([C@@H](O)C(C)C)[C@@H](O)[C@H]2O)c1-c1nc2c(C)nccc2s1 [Example 5122]	< 0.5
Cc1nc(N[C@H]2CCC[C@H]2O)nc(N[C@@H]2C[C@H](CO)[C@@H](O)[C@H]2O)c1-c1nc2c(C)nccc2s1 [Example 5149]	< 0.5
COCCNc1nc(C)c(-c2nc3c(C)nccc3s2)c(N[C@@H]2C[C@H](CC(C)(C)O)[C@@H](O)[C@H]2O)n1 [Example 5307]	< 0.5
Cc1nc(NC2(C)CCC2)nc(N[C@@H]2C[C@H](C(C)(C)O)[C@@H](O)[C@H]2O)c1-c1nc2c(C)nccc2s1 [Example 5153]	< 0.5
C#CCCNc1nc(C)c(-c2nc3c(C4CC4)nccc3s2)c(N[C@@H]2C[C@H](C(C)(F)F)[C@@H](O)[C@H]2O)n1 [Example 5189]	< 0.5
Cc1nc(NCC(C)(F)F)nc(N[C@@H]2C[C@H](C(C)(C)O)[C@@H](O)[C@H]2O)c1-c1nc2c(C)nccc2s1 [Example 5221]	< 0.5
Cc1nc(NCC2(O)CCCC2)nc(N[C@@H]2C[C@H](C3(O)CCCC3)[C@@H](O)[C@H]2O)c1-c1nc2c(C)nccc2s1 [Example 5110]	< 0.5
Cc1nc(NCC(C)(C)C)nc(N[C@@H]2C[C@H](C(C)(F)F)[C@@H](O)[C@H]2O)c1-c1nc2c(C3CC3)nccc2s1 [Example 5176]	< 0.5
CO[C@H]1CCCC[C@@H]1Nc1nc(C)c(-c2nc3c(C)nccc3s2)c(N[C@@H]2C[C@H](CO)[C@@H](O)[C@H]2O)n1 [Example 5136]	< 0.5
Cc1nc(NCC(F)(F)F)nc(N[C@@H]2C[C@H](C(C)(C)S(C)(=O)=O)[C@@H](O)[C@H]2O)c1-c1nc2c(C)nccc2s1 [Example 5078]	< 0.5
Cc1nc(NCC2(O)CCCC2)nc(NC2(CO)CCCC2)c1-c1nc2c(C3CC3)nccc2s1 [Example 5127]	< 0.5
CCNC(=S)N[C@H]1C[C@@H](Nc2nc(N[C@H](C)C3CC3)nc(C)c2-c2nc3c(C4CC4)nccc3s2)[C@H](O)[C@@H]1O [Example 5024]	< 0.5
CO[C@@H]1[C@H](OC)[C@@H](C(C)(C)O)C[C@H]1Nc1nc(N)nc(C)c1-c1nc2c(C)nccc2s1 [Example 5268]	< 0.5
CO[C@@H]1CCC[C@@H]1Nc1nc(C)c(-c2nc3c(C)nccc3s2)c(N[C@@H]2C[C@H](C(C)(C)Cl)[C@@H](O)[C@H]2O)n1 [Example 5145]	< 0.5
CCSC[C@@H](C)Nc1nc(C)c(-c2nc3c(C)nccc3s2)c(N[C@@H]2C[C@H](C(C)(C)O)[C@@H](O)[C@H]2O)n1 [Example 5253]	< 0.5
Cc1nc(N)nc(N[C@@H]2C[C@H](C(C)(C)S(C)(=O)=O)[C@@H](O)[C@H]2O)c1-c1nc2c(C3CC3)nccc2s1 [Example 5072]	< 0.5
Cc1nc(NCCS(=O)(=O)NC(C)(C)C)nc(N[C@@H]2C[C@H](C(C)(C)O)[C@@H](O)[C@H]2O)c1-c1nc2c(C)nccc2s1 [Example 5289]	< 0.5
CSCCCNc1nc(C)c(-c2nc3c(C)nccc3s2)c(N[C@@H]2C[C@H](C(C)(C)O)[C@@H](O)[C@H]2O)n1 [Example 5261]	< 0.5
Cc1nc(NCC(F)(F)C(F)(F)C(F)(F)F)nc(N[C@@H]2C[C@H](C3(O)CCCC3)[C@@H](O)[C@H]2O)c1-c1nc2c(C)nccc2s1 [Example 5113]	5 to 25
CO[C@@H]1CCC[C@@H]1Nc1nc(C)c(-c2nc3c(C4CC4)nccc3s2)c(N[C@@H]2C[C@H](CO)[C@@H](O)[C@H]2O)n1 [Example 5142]	< 0.5
COc1ccc(S(=O)(=O)C[C@H]2C[C@@H](Nc3nc(NC4CC4)nc(C)c3-c3nc4c(C)nccc4s3)[C@H](O)[C@@H]2O)cc1F [Example 5005]	< 0.5
Cc1cc(S(=O)(=O)C[C@H]2C[C@@H](Nc3nc(N)nc(C)c3-c3nc4c(C)nccc4s3)[C@H](O)[C@@H]2O)ccc1F [Example 5020]	< 0.5
COCCNc1nc(C)c(-c2nc3c(C)nccc3s2)c(N[C@@H]2C[C@H]([C@H](O)C(C)C)[C@@H](O)[C@H]2O)n1 [Example 5105]	< 0.5
CCCCCNc1nc(C)c(-c2nc3c(C)nccc3s2)c(N[C@@H]2C[C@H](C(O)(CC)CC)[C@@H](O)[C@H]2O)n1 [Example 5272]	< 0.5
